From US9751919B2, “Antimicrobial compositions comprising a hyaluronic acid binding peptide and a β-lactam antibiotic” (priority 2012, dated 2017)
Several values for one entry are separate records, joined by “and”; a condition that tells them apart may be missing. Identical values can stand only once.

Legend:
S. agalactiae = assay: Checkerboard assay (FIC index); format: cell-based, Streptococcus agalactiae; details: antibiotic combined with PEP35
Description: (§1) The checkerboard assays were carried out as described by Eliopoulos and Moellering (Chapter 9) in Antibiotic in Laboratory Medicine, Lorian Ed. 1996 as well as Bonapace et al. Diagnostic Microbiology and Infectious Diseases 2002; 44:363-366 and Bonapace et al. Diagnostic Microbiology and Infectious Diseases 2000; 38:43-50. In brief, checkerboard assays were performed in 96 well microtitre trays using an 8-by-8 well configuration. […] 96-well custom designed microtitre plates contained 100 ul/well of cation adjusted Mueller-Hinton broth (eg. for Enterobacteriaceae) with or without lysed horse blood (2-5% V/V) [eg. for S. pneumoniae] and were inoculated to achieve a final concentration of approximately 5×10^5 CFU/ml and incubated in ambient air for 24 hours prior to reading. Colony counts were performed periodically to confirm inocula. Quality control was performed every two weeks using a variety of ATCC QC organisms including; S. pneumoniae 49619, S. aureus 29213, E. faecalis 29212, E. coli 25922 and P. aeruginosa 27853. For all antimicrobials as well as PEP35, CLSI criteria was used.
(§2) The fractional inhibitory concentration index (FIC index) was used to interpret synergy, antagonism or additivity/indifference. FIC index=FIC of drug A+FIC of drug B where:
(§3) The FIC of drug A and drug B is calculated as follows, FIC drug A=MIC of drug A in combination/MIC of drug A alone and FIC of drug B=MIC of drug B in combination/MIC of drug B alone. Synergy is defined as FIC index ≦0.5, additivity/indifference FIC >0.5-4 and antagonism FIC index >4.
(§4) Antimicrobials used included PEP35, cefazolin, ceftriaxone, vancomycin, linezolid, tigecycline and daptomycin versus Gram-positive cocci and PEP35, gentamicin, levofloxacin, piperacillin/tazobactam, meropenem and colistin (Polymyxin E) versus Gram-negative bacilli. These agents were obtained as laboratory grade powders from their respective manufacturers. Stock solutions were prepared and dilutions made as described by the Clinical Laboratory Standards Institute (2005 CLSI).
(§5) Organisms included Gram-positive cocci (2 strains of each): Methicillin-susceptible Staphylococcus aureus (MSSA), community-associated (CA) and healthcare-associated (HA) methicillin-resistant Staphylococcus aureus (MRSA), vancomycin-intermediate Staphylococcus aureus (VISA), vancomycin-resistant Staphylococcus aureus (VRSA), methicillin-resistant Staphylococcus epidermidis (MRSE), Streptococcus pyogenes, Streptococcus agalactiae, Streptococcus pneumoniae, Enterococcus faecalis, Enterococcus faecium and vancomycin-resistant enterococcus (VRE). Gram-negative bacilli tested (2 strains of each) included: E. coli, Pseudomonas aeruginosa, Klebsiella pneumoniae, K. oxytoca, Enterobacter cloacae, P. mirabilis and Stenotrophomonas maltophilia. MIC testing, following two subcultures from frozen stock were determined by the CLSI 2005 approved broth microdilution method.

VRSA = assay: MIC (CLSI broth dilution), agent alone; format: cell-based, Staphylococcus aureus; set-up: unit not given beside the values
Description: (§6) VISA (strains 92, 95 and 96), VRSA (strains 105 and 106) and E. coli (strain 69717) isolates were also tested. One MSSA was used as a control. All MICs were assessed using CLSI guidelines. Also assessed was the activity of cefazolin, ceftriazone, meropenem, and a piperacillin/tazobactam combination antibiotic. Minimum inhibitory concentration (MIC) is the lowest concentration of an antimicrobial that will inhibit the visible growth of a microorganism after incubation.
(§7) Antimicrobial Susceptibility Testing: A custom designed panel of antimicrobials was created. The panel included: PEP35, penicillin, piperacillin/tazobactam, cefazolin, ceftriaxone, meropenem, clarithromycin, clindamycin, gentamicin, amikacin, vancomycin, ciprofloxacin, levofloxacin, moxifloxacin, linezolid, trimethoprim/sulfamethoxazole and doxycycline. These agents were obtained as laboratory grade powders from their respective manufacturers. Stock solutions were prepared and dilutions made as described by the Clinical Laboratory Standards Institute (2005 CLSI). Following two subcultures from frozen stock the MICs of the antimicrobial agents for the isolates were determined by the CLSI 2005 approved broth macrodilution method. Briefly, test tubes containing doubling antibiotic dilutions (2 ml per tube) of cation adjusted Mueller-Hinton broth (eg. for Enterobacteriaceae) with or without lysed horse blood (2-5% V/V) [eg. for S. pneumoniae] were inoculated to achieve a final concentration of approximately 5×10^5 CFU/ml and incubated in ambient air for 24 hours prior to reading. Colony counts were performed periodically to confirm inocula. Quality control was performed every two weeks using a variety of ATCC QC organisms including; S. aureus 29213, E. faecalis 29212, E. coli 25922 and P. aeruginosa 27853. For all antimicrobials as well as PEP35, CLSI criteria were used.
(§8) One MSSA was used as a control. All MICs were assessed using CLSI guidelines.

VISA = assay: MIC (CLSI broth dilution), agent alone; format: cell-based, Staphylococcus aureus; set-up: unit: µg/mL
Description: as §6, §7, §8

E. faecalis = assay: Checkerboard assay (FIC index); format: cell-based, Enterococcus faecalis; details: antibiotic combined with PEP35
Description: as §1, §2, §3, §4, §5

Row | Compound | Avg ΣFIC (range) (S. agalactiae; S. agalactiae 80870 (MHB)) | Avg ΣFIC (range) (S. agalactiae; S. agalactiae 81262 (MHB)) | MIC (VRSA; VRSA 105) | MIC (VRSA; VRSA 105, in µg/mL) | MIC (VRSA; VRSA 106) | MIC (VRSA; VRSA 106, in µg/mL) | MIC (VISA; VISA 92) | MIC (VISA; VISA 92, in µg/mL) | MIC (VISA; VISA 95, in µg/mL) | MIC (VISA; VISA 95, listed as CEFAZOLIN, in µg/mL) | MIC (VISA; VISA 96) | MIC (VISA; VISA 96, in µg/mL) | Avg ΣFIC (range) (E. faecalis; E. faecalis 70468) | Avg ΣFIC (range) (E. faecalis; E. faecalis 78145) | MIC (VRSA; VRSA 106, listed as CEFTRIAXONE) | MIC (VISA; VISA 95, listed as CEFTRIAXONE, in µg/mL) | MIC (VRSA; VRSA 105, listed as VAN, in µg/mL) | MIC (VRSA; VRSA 106, listed as VAN, in µg/mL) | MIC (VISA; VISA 95)
1 | Cc1nnc(SCC2=C(C(=O)O)N3C(=O)[C@@H](NC(=O)Cn4cnnn4)[C@H]3SC2)s1 [Cefazolin] | 0.92 (0.56-1.25) | 1.10 (1-1.25) | 128/128/128/ | 128 and 256 | 256/256 | 256 and 128 | 128/128 | 128 | 128 and 64 | 128 | 32/32 | 64 and 32 | 0.94 (0.56-1.25) | 0.93 (0.62-1.06) |  |  |  |  | 
2 | CO/N=C(\C(=O)N[C@@H]1C(=O)N2C(C(=O)O)=C(CSc3nc(=O)c(=O)[nH]n3C)CS[C@H]12)c1csc(N)n1 [Ceftriaxone] | 0.99 (0.53-1.25) | 1.05 (0.75-1.25) | 2048 and 1024/1024 |  | 1024 and 2048/2048 |  | 1024/1024 | 1024 | 512 |  | 256 and 128/128 and 256/256 |  | 1.1 (1-1.25) | 0.72 (0.53-1.12) | 1024/1024 | 1024 and 512 |  |  | 
3 | CCCCCCCCCC(=O)N[C@@H](Cc1c[nH]c2ccccc12)C(=O)N[C@H](CC(N)=O)C(=O)N[C@@H](CC(=O)O)C(=O)N[C@@H]1C(=O)NCC(=O)N[C@@H](CCCN)C(=O)N[C@@H](CC(=O)O)C(=O)N[C@H](C)C(=O)N[C@@H](CC(=O)O)C(=O)NCC(=O)N[C@H](CO)C(=O)N[C@@H]([C@H](C)CC(=O)O)C(=O)N[C@@H](CC(=O)c2ccccc2N)C(=O)O[C@@H]1C [Daptomycin, daptomycin] | 0.83 (0.53-1.12) | 1.69 (1.06-2.5) |  |  |  |  |  |  |  |  |  |  | 1.5 (1-2.25) | 1.39 (1.03-2.25) |  |  |  |  | 
4 | CC(=O)NC[C@H]1CN(c2ccc(N3CCOCC3)c(F)c2)C(=O)O1 [Linezolid, linezolid] | 1.1 (1.0-1.25) | 0.91 (0.53-1.25) |  |  |  |  |  |  |  |  |  |  | 0.99 (0.62-1.25) | 0.88 (0.62-1.06) |  |  |  |  | 
5 | C[C@@H](O)[C@H]1C(=O)N2C(C(=O)O)=C(S[C@@H]3CN[C@H](C(=O)N(C)C)C3)[C@H](C)[C@H]12 [Meropenem] |  |  |  | 32 and 16 | 16 and 16/16 |  |  | 16 | 16 |  | 8 and 8/8 |  |  |  |  |  |  |  | 
6 | CN(C)c1cc(NC(=O)CNC(C)(C)C)c(O)c2c1C[C@H]1C[C@H]3[C@H](N(C)C)C(O)=C(C(N)=O)C(=O)[C@@]3(O)C(O)=C1C2=O [Tigecycline, tigecycline] | 1.10 (1.0-1.25) | 1.05 (0.75-1.25) |  |  |  |  |  |  |  |  |  |  | 0.82 (0.5-1.06) | 0.9 (0.5-1.12) |  |  |  |  | 
7 | CN[C@H](CC(C)C)C(=O)N[C@H]1C(=O)N[C@@H](CC(N)=O)C(=O)N[C@H]2C(=O)N[C@H]3C(=O)N[C@H](C(=O)N[C@H](C(=O)O)c4cc(O)cc(O)c4-c4cc3ccc4O)[C@H](O)c3ccc(c(Cl)c3)Oc3cc2cc(c3O[C@@H]2O[C@H](CO)[C@@H](O)[C@H](O)[C@H]2O[C@H]2C[C@](C)(N)[C@H](O)[C@H](C)O2)Oc2ccc(cc2Cl)[C@H]1O [Vancomycin] | 1.05 (0.75-1.25) | 1.1 (1.0-1.25) | 512/512/512 |  | 512/512/512 |  | 4/4 |  |  |  | 4/4 |  | 1.1 (1-1.25) | 1.19 (1.03-15) |  |  | 512 | 512 | 2 and 4
8 | KKKKKLQLQLNLIKKKVQVSVVVVRRH (Reordered human peptide sequence) [Scrambled PEP35] |  |  |  | 64 |  | 128 |  | 2048 | 2048 |  |  | 1024 |  |  |  |  |  |  | 
9 | LKQKIKHVVKLKVVVKLRSQLVKRKQN (listed as Mus sp.) [PEP35] |  |  |  | 128 and 64 | 128 and 128/128/128 |  | 1024 and 2048/2048/2048 |  |  |  | 512 and 512/512/512 |  |  |  |  |  |  |  | 
10 | piperacillin/tazobactam |  |  |  | 64 |  | 64 |  | 64 | 64 |  |  | 64 |  |  |  |  |  |  | 
